Results published in patent US11466011B2, “Compounds and their use as inhibitors of N-myristoyl transferase” (Imperial College Innovations Limited, priority 2015, dated 2022).
Where a name gives a salt, the structure may show the parent alone.

Columns and labels:
[1] = target: Leishmania donovani (Ld) N-myristoyl transferase (Leishmania donovani, UniProt D0AB09); experiment: Fluorescence-based NMT assay (a), adapted version, LdNMT; format: biochemical
[2] = target: T1, Leishmania major (Lm) N-myristoyl transferase (Leishmania major, UniProt Q4Q5S8); experiment: Fluorescence-based NMT assay (a), adapted version, LmNMT; format: biochemical
T1 sequence (Q4Q5S8 1-421): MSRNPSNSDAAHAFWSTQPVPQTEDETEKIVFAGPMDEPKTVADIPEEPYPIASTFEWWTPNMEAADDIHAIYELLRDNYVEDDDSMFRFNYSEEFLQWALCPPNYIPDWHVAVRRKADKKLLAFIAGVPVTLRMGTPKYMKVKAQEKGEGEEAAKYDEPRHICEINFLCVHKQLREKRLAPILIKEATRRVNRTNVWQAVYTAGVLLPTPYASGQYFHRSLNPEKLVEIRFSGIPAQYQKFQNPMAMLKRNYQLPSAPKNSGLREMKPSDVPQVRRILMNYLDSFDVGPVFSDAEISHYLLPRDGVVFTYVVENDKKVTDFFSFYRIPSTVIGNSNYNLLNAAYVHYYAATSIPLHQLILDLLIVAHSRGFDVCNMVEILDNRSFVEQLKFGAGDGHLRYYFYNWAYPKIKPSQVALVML

HRV16 [3] = experiment: Rhinovirus production assay 2 (f), virus-induced cytopathic effect; format: cell-based, human HeLa Ohio cell line; conditions: 2 days post-infection, HeLa Ohio cells
Method: Examples 30, 35, 49 and 50 of the invention was tested for activity in a rhinovirus replication assay in the human HeLa Ohio cell line. Compounds having activity in inhibiting rhinovirus production in the assay are expected to be useful as agents for preventing and/or treating asthma or chronic obstructive pulmonary disease (COPD), by virtue of being inhibitors of human NMT1 and/or NMT2, which are thought to myristoylate rhinovirus capsid subunit VP4 and be essential for virus assembly. HeLa Ohio cells were grown in growth media (DMEM supplemented with 10% FBS, 1% Sodium Bicarbonate and 25 mM Hepes) and seeded 24 hours prior to infection in a 96-well plate at a cell density allowing to obtain 100% confluent cells (5.6×10^4 cells per well) the next day. Confluent cells were infected with HRV16 at an MOI of 0.05 in the presence of different concentrations of inhibitor, as indicated in the table below, each in duplicate. The virus stock (5.6×10^6 PFU/ml) was diluted in growth media to obtain a virus solution at 1.4×10^4 PFU/ml. This virus dilution was used to dilute the inhibitor by serial dilutions in order to obtain virus solutions with the inhibitor concentrations indicated in the table below. The DMSO control contained the same percentage of DMSO as in the solution with the highest concentration of inhibitor.

HeLa Ohio cells = experiment: Cell viability of inhibitor-treated uninfected cells (assay (f)); conditions: MTS 2 days post-treatment
HRV16 [4] = experiment: Rhinovirus production assay (e), virus titre (TCID50); format: cell-based, human HeLa Ohio cell line; conditions: Enterovirus
Method: Example 30 of the invention was tested for activity in an in vitro rhinovirus production assay using the human HeLa Ohio cell line. Compounds having activity in inhibiting rhinovirus production in the assay are expected to be useful as agents for preventing and/or treating asthma or chronic obstructive pulmonary disease (COPD), by virtue of being inhibitors of human NMT1 and/or NMT2, which are thought to myristoylate rhinovirus capsid subunit VP4 and be essential for virus assembly. Hela Ohio cells were grown in growth media (DMEM supplemented with 10% FBS, 1% Sodium Bicarbonate and 25 mM Hepes) and seeded 24 h prior to infection in a 12-well plate at a cell density allowing to obtain 100% confluent cells (5.95×10^5 cells per well) the next day. Confluent cells were treated with different concentrations of inhibitor, as indicated in the table below, each in triplicate. The Example 30 inhibitor solution was prepared by serial dilutions in growth media and the DMSO control contained the same percentage of DMSO as in the solution with the highest concentration of inhibitor. […] Cells were then infected with HRV16 at an MOI of 1 in the presence of the inhibitor. The virus stock (2.492×10^7 PFU/ml) was diluted in growth media to obtain a virus solution at 5.95×10^5 PFU/ml. This virus dilution was used to dilute the inhibitor as previously described in order to obtain virus solutions with the inhibitor concentrations indicated in the table below. The cell media was as replaced by 1 ml per well of virus+inhibitor solution and the plate was incubated for 1 h at room temperature to allow virus adsorption onto the cells. The cells were then washed with PBS and the media was replaced with 1 ml per well of growth media+inhibitor, prepared as previously described. […] The media and cells form each well were then transferred to 1.5 ml tubes and centrifuged for 1 min at 16000×g to remove cell debris. The virus titres from the cleared supernatants were determined by measuring the 50% Tissue Culture Infective Dose (TCID50). Each sample was diluted in a series of 10-fold dilutions in TCID50 media (DMEM supplemented with 2% FBS, 1% Sodium Bicarbonate, 25 mM Hepes and 1% Penicillin-Streptomycin) and 50 μl of each of the dilutions 1/10 to 1/10^−8 were added onto a 96-well plate, in 6 replicates. HeLa Ohio cells at a cell density of 1×10^5 cells/ml in TCID50 media were then added to each well (150 μl per well). Some wells with cells alone (without sample) were included as control. […] The appearance of characteristic cytopathic effect, compared to control cells, was then assessed by observation of the plates on an inverted microscope and the virus titres were subsequently calculated by the method of Reed and Muench.

HeLa and/or BL-41 cells = experiment: Metabolic activity assay (MTS assay) (d), HeLa and/or BL-41; format: cell-based; conditions: Homo sapiens, 72 h
Method: Example NMT inhibitors of the invention were tested for activity in an in vitro metabolic activity assay using human cell lines (HeLa and BL-41). Compounds having activity in inhibiting metabolic activity in the assay are expected to be useful as agents for preventing and/or treating cancer, by virtue of being inhibitors of human NMT1 and/or NMT2.
Hela cells were grown in DMEM media (supplemented with 10% FBS) and seeded in a 96-well plate 24 h prior to treatment. BL-41 cells were grown in RPMI-1640 media (supplemented with 10% FBS) and seeded directly before treatment. Cell suspensions were prepared by adjusting the cell density to the appropriate concentration (as stated in the table below) and 50 μL of the cell suspension was transferred to wells B-G in columns 2-11 of a 96-well plate.
100 μL of growth media containing 0.2% DMSO was added to wells B-G in columns 2 and 11 as positive controls and 100 μL of growth media containing Puromycin (3 μg/mL; final concentration in the plate 2 μg/mL) was added to wells B-G in column 3 as a negative control. 7 concentrations of inhibitor solution were prepared using example NMT inhibitors (same final percentage of DMSO, dilution factor=3 starting from 15 μM or 150 μM) and 100 μL of inhibitor solution was added to wells B-G in columns 4-10 (final concentration of example NMT inhibitor in the plate starting from 10 μM or 100 μM; total volume of the wells=150 μL).
After 72 h, 20 μL MTS reagent (Promega, prepared according to the supplier protocol) was added to each well of the 96-well plate. The plate was incubated at 37° C. (2 hours for HeLa cells and 4 hours for BL-41 cells) and absorbance was measured at 490 nm with a Spectra Max M2/M2e microplate reader. The average absorbance value of the negative control (Puromycin-treated cells) was subtracted from each value and the metabolic activity was calculated as a percentage relative to the positive control (DMSO-treated cells). EC50s were calculated using Grafit 7.0 (Erithacus Software Ltd, UK).

Chain of Leishmania donovani (Ld) N-myristoyl transferase (D0AB09 entry or part of it): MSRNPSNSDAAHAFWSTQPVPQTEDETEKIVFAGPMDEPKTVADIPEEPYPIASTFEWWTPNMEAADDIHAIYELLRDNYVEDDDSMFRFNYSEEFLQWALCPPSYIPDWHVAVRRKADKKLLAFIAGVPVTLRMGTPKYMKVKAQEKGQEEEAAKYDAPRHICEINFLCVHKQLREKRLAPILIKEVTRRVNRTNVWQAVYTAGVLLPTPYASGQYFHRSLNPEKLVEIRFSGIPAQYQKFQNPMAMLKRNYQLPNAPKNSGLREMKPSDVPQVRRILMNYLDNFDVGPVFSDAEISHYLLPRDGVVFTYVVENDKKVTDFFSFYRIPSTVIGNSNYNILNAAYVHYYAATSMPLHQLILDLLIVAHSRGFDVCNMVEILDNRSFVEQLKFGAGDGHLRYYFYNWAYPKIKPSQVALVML

Compound | melting point [°C] | IC50 [1] [nM] | IC50 [2] [nM] | HRV16 production (virus-induced cytopathic effect, MTS) (HRV16 [3]) | cell viability of inhibitor-treated but uninfected cells (HeLa Ohio cells) | EC50 (HRV16 [4]) [nM] | EC50 (HeLa and/or BL-41 cells) [nM]
Cc1nn(C)c(C)c1CCOc1cc(F)ccc1-c1ccc2c(c1)c(CN)nn2C (as salt: salt) [Example 31, (5-(4-fluoro-2-(2-(1,3,5-trimethyl-1H-pyrazol-4-yl)ethoxy)phenyl)-1-methyl-1H-indazol-3-yl)methanamine] | 230 to 233 | – | – | – | – | – | –
Cc1nn(C)c(C)c1CCOc1cc(F)ccc1-c1ccc2[nH]nc(CN(C)C)c2c1 [Example 7] | – | 1 to 100 | – | – | – | – | –
CN(C)Cc1n[nH]c2ccc(-c3ccc(F)cc3OCCc3cccnc3)cc12 [Example 8] | – | 1 to 100 | 1 to 100 | – | – | – | –
Cc1nn(C)c(C)c1CCOc1c(F)cccc1-c1ccc2c(c1)c(CN(C)C)nn2C [Example 30] | – | – | – | inhibit HRV16 production in a dose-dependent manner | without affecting cell viability | 10 to 100 | 1 to 100
CNCc1nn(C)c2ccc(-c3cccc(F)c3OCCc3c(C)nn(C)c3C)cc12 [Example 35, 1-(5-(3-fluoro-2-(2-(1,3,5-trimethyl-1H-pyrazol-4-yl)ethoxy)phenyl)-1-methyl-1H-indazol-3-yl)-N-methylmethanamine] | – | – | – | inhibit HRV16 production in a dose-dependent manner | without affecting cell viability | 10 to 100 | –
Cc1nn(C)c(C)c1CCOc1c(-c2ccc3c(c2)c(CN(C)C)nn3C)ccc(F)c1F [Example 49] | – | – | – | inhibit HRV16 production in a dose-dependent manner | without affecting cell viability | 10 to 100 | 1 to 100
CNCc1nn(C)c2ccc(-c3ccc(F)c(F)c3OCCc3c(C)nn(C)c3C)cc12 [Example 50, 1-(5-(3,4-difluoro-2-(2-(1,3,5-trimethyl-1H-pyrazol-4-yl)ethoxy)phenyl)-1-methyl-1H-indazol-3-yl)-N-methylmethanamine] | – | – | – | inhibit HRV16 production in a dose-dependent manner | without affecting cell viability | 10 to 100 | 1 to 100
